This is an account of results in patent US9227979B2, “Fluorescent antagonists of the A3 adenosine receptor” (The United States of America, as represented by the …, priority 2012, dated 2016).

Structures can show the parent of a compound that is named as a salt. Where two headings read alike, the source gives them in different places.

Experiment [1] has as its target T1, hA3AR (Homo sapiens (Human), UniProt P0DMS8). As to the kind of experiment: FCM competitive binding in whole CHO cells using MRS5449 as tracer. As to conditions: whole CHO cells expressing hA3AR; 5 nM MRS5449 tracer; 90 min at 37° C. Here is the method: Total binding was measured in the absence of the competitor.
At the end of each time interval, the medium was removed and cells were washed three times with ice-cold DPBS. After washing, 1 ml 0.2% EDTA solution was added to each well, and cells were incubated at 37° C. for 7 min. Following cell detachment, 1 ml medium was added to each well to neutralize the EDTA. The cell suspensions were transferred to polystyrene round-bottom BD Falcon tubes (BD, Franklin Lakes, N.J.) and centrifuged for 5 min at 23° C. and 400×g. After centrifugation, the supernatant was discarded, and cells were washed with 3 ml PBS and centrifuged again at 23° C. and 400×g for 5 min. After discarding the supernatant, cells were suspended in 0.5 ml PBS and analyzed by FCM.
The intensity of fluorescence emission of each sample was measured by using FCM. […] Samples were maintained in the dark during the analysis to avoid photobleaching. MFIs were obtained in the FL-1 channel in log mode. Ten thousand events were analyzed per sample.
Data analysis was performed with the Prism 5 (GraphPad, San Diego Calif.) software. The mean autofluorescence of CHO cells was measured in the absence of the fluorescent ligand.

The target in experiment [2] is T1, hA3AR. As to conditions: Table 2; cell membrane preparations using [125I]-AB-MECA; reported literature values; read-out: hA3AR radioligand binding, Ki; cited from earlier work.

T1 sequence (P0DMS8 whole entry): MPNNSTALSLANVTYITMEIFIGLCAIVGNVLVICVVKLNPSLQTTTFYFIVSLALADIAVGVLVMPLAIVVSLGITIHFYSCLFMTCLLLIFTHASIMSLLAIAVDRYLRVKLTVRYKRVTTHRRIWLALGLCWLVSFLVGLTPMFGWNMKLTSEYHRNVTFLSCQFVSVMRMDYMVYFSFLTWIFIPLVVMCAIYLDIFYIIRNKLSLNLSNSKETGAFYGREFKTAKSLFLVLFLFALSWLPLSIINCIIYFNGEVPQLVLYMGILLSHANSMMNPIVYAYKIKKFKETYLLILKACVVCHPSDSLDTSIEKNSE

On to `CCC1CN2C(=O)N(C)c3nc(-c4cc(Cl)cc(Cl)c4Cl)[nH]c3C2=N1` (centres unmarked) [PSB-10, 8-ethyl-1,4,7,8-tetrahydro-4-methyl-2-(2,3,5-trichlorophenyl)-5H-imidazo[2,1-i]purin-5-one monohydrochloride], for which the Ki in experiment [1] was 9.54 ± 2.2 nM; in experiment [2], 0.441 nM.

The term Ki denotes the equilibrium dissociation constant of an inhibitor or competing ligand from its target.
